From ChEMBL document CHEMBL1145527, “Design, synthesis, and antiproliferative and CDK2-cyclin a inhibitory activity of novel flavopiridol analogues” (Bioorg Med Chem, 2007)
pIC50: −log10 of the molar value.

Experiments:
[1] = system: MCF7; experiment: Antiproliferative activity against MCF7 cells; type: functional, cell-based; details: Homo sapiens
[2] = Antiproliferative activity against ID8 cells; type: functional, cell-based; details: Mus musculus
[3] = target: Cyclin-dependent kinase 2/cyclin A (Homo sapiens, UniProt P24941); experiment: Inhibition of CDK2/Cyclin A; type: protein-complex assay

Question: With `O=C(Nc1ccc(O)c2c(=O)cc(-c3ccccc3Cl)oc12)c1ccc(Cl)c(Cl)c1` as the compound, how does the pIC50 [1] read?
Answer: Its pIC50 is 4.82.

Question: What about the pIC50 [2] of the same compound?
Answer: Its pIC50 is 4.89.

Question: What about the pIC50 [3] of the same compound?
Answer: Its pIC50 is 3.66.

Question: Which results are given for `CSCC[C@@H](NC(=O)OC(C)(C)C)C(=O)Nc1ccc(O)c2c(=O)cc(-c3ccccc3Cl)oc12`?
Answer: pIC50 [1]: 5.55; pIC50 [2]: 4.89

Question: With `O=C(Nc1c(O)cc(O)c2c(=O)cc(-c3ccccc3Cl)oc12)c1ccccc1` as the compound, how does the pIC50 [1] read?
Answer: Its pIC50 is 5.07.

Question: And the pIC50 [3]?
Answer: Its pIC50 is 4.04.

Question: Which results are given for `CC(C)(C)OC(=O)N[C@H](Cc1ccccc1)C(=O)Nc1ccc(O)c2c(=O)cc(-c3ccccc3Cl)oc12`?
Answer: pIC50 [1]: 5.35; pIC50 [2]: 4.92; pIC50 [3]: 3.38

Question: Which results are given for `CC(C)C[C@@H](NC(=O)OC(C)(C)C)C(=O)Nc1ccc(O)c2c(=O)cc(-c3ccccc3Cl)oc12`?
Answer: pIC50 [2]: 4.77; pIC50 [3]: 3.38

Question: With `O=C(Nc1c(O)cc(O)c2c(=O)cc(-c3ccccc3Cl)oc12)c1ccc(Cl)cc1` as the compound, how does the pIC50 [1] read?
Answer: The pIC50 was 4.89.

Question: What about the pIC50 [3] of the same compound?
Answer: Its pIC50 is 3.47.

Question: With `O=C(Nc1ccc(O)c2c(=O)cc(-c3ccccc3Cl)oc12)c1ccc(Cl)cc1` as the compound, how does the pIC50 [1] read?
Answer: The pIC50 was 5.34.

Question: And the pIC50 [2]?
Answer: The pIC50 was 5.26.

Question: What about the pIC50 [3] of the same compound?
Answer: Its pIC50 is 3.38.

Question: With `CCC(C)OC(=O)Nc1ccc(O)c2c(=O)cc(-c3ccccc3Cl)oc12` (stereo not given) as the compound, how does the pIC50 [1] read?
Answer: Its pIC50 is 4.52.

Question: What about the pIC50 [2] of the same compound?
Answer: Its pIC50 is 4.74.

Question: And the pIC50 [3]?
Answer: Its pIC50 is 3.38.

Question: With `Cc1ccc(C(=O)Nc2ccc(O)c3c(=O)cc(-c4ccccc4Cl)oc23)cc1` as the compound, how does the pIC50 [1] read?
Answer: Its pIC50 is 5.00.

Question: What about the pIC50 [2] of the same compound?
Answer: The pIC50 was 4.80.

Question: With `CC(C)C[C@H](NC(=O)OC(C)(C)C)C(=O)Nc1ccc(O)c2c(=O)cc(-c3ccccc3Cl)oc12` as the compound, how does the pIC50 [1] read?
Answer: The pIC50 was 5.40.

Question: And the pIC50 [2]?
Answer: Its pIC50 is 5.29.

Question: What about the pIC50 [3] of the same compound?
Answer: Its pIC50 is 3.38.

Question: With `COc1ccc(C(=O)Nc2ccc(O)c3c(=O)cc(-c4ccccc4Cl)oc23)cc1` as the compound, how does the pIC50 [1] read?
Answer: The pIC50 was 5.46.

Question: And the pIC50 [2]?
Answer: Its pIC50 is 5.30.

Question: And the pIC50 [3]?
Answer: The pIC50 was 3.42.

Question: What does the source list for `C[C@@H](NC(=O)OC(C)(C)C)C(=O)Nc1ccc(O)c2c(=O)cc(-c3ccccc3Cl)oc12`?
Answer: pIC50 [1]: 5.26; pIC50 [2]: 3.98

Question: With `CN1CC[C@H](c2c(O)cc(O)c3c(=O)cc(-c4ccccc4Cl)oc23)[C@H](O)C1` [ALVOCIDIB] as the compound, how does the pIC50 [1] read?
Answer: The pIC50 was 7.59.

Question: And the pIC50 [2]?
Answer: Its pIC50 is 8.15.

Question: With `C[C@H](NC(=O)OC(C)(C)C)C(=O)Nc1ccc(O)c2c(=O)cc(-c3ccccc3Cl)oc12` as the compound, how does the pIC50 [1] read?
Answer: The pIC50 was 5.26.

Question: And the pIC50 [2]?
Answer: The pIC50 was 5.01.

Question: And the pIC50 [3]?
Answer: Its pIC50 is 3.38.

Question: With `O=c1cc(-c2ccccc2Cl)oc2c(N3CCOCC3)ccc(O)c12` as the compound, how does the pIC50 [1] read?
Answer: Its pIC50 is 4.70.

Question: And the pIC50 [2]?
Answer: The pIC50 was 5.10.

Question: What about the pIC50 [3] of the same compound?
Answer: Its pIC50 is 3.38.

Question: With `CSCC[C@H](NC(=O)OC(C)(C)C)C(=O)Nc1ccc(O)c2c(=O)cc(-c3ccccc3Cl)oc12` as the compound, how does the pIC50 [1] read?
Answer: Its pIC50 is 4.70.

Question: What about the pIC50 [2] of the same compound?
Answer: Its pIC50 is 5.21.

Question: With `COc1ccc(C(=O)Nc2c(O)cc(O)c3c(=O)cc(-c4ccccc4Cl)oc23)cc1` as the compound, how does the pIC50 [1] read?
Answer: Its pIC50 is 4.89.

Question: And the pIC50 [3]?
Answer: The pIC50 was 4.27.

Question: With `Cc1ccc(C(=O)Nc2c(O)cc(O)c3c(=O)cc(-c4ccccc4Cl)oc23)cc1` as the compound, how does the pIC50 [1] read?
Answer: The pIC50 was 5.01.

Question: And the pIC50 [3]?
Answer: Its pIC50 is 4.05.

Question: What does the source list for `O=C(Nc1ccc(O)c2c(=O)cc(-c3ccccc3Cl)oc12)c1ccccc1`?
Answer: pIC50 [1]: 5.15; pIC50 [2]: 4.89; pIC50 [3]: 3.38

Question: With `CC(C)(C)OC(=O)N[C@@H](Cc1ccccc1)C(=O)Nc1ccc(O)c2c(=O)cc(-c3ccccc3Cl)oc12` as the compound, how does the pIC50 [1] read?
Answer: Its pIC50 is 5.15.

Question: What about the pIC50 [2] of the same compound?
Answer: The pIC50 was 5.28.

Question: And the pIC50 [3]?
Answer: The pIC50 was 3.38.
